# Reference: US6361758B1, “Cosolvent formulations” (Abbott Laboratories, priority 1998, dated 2002)
# What was measured:
# [1] = Stability of paracalcin in a cosolvent formulation; assay type: physicochemical; details: 5 μg/ml in 20% ethanol/30% propylene glycol/50% water
# Protocol: Samples of paracalcin (5 μg/ml) in 20% ethanol/30% propylene glycol/50% water were prepared for stability testing. In an appropriate vessel, water for injection to approximately 30% of final volume is added. Propylene glycol is added to the vessel with mixing. In a separate container, the specified amount of paracalcin is dissolved in a portion of the ethanol (190 proof non-beverage), which is obtained from the total volume of ethanol specified for the batch, and added to the vessel with mixing. An additional aliquot of the batch ethanol is used to rinse the container and the rinsing solution is added to the vessel with mixing. The remaining alcohol is added to the vessel with mixing. Q.s. with water for injection to final volume and mix for approximately 30 minutes. The solution is filtered through a 0.45 micron membrane and dispensed into ampuls. Each ampul is flame sealed and autoclaved to F016.
# One set of ampuls are tested (T=0) for percent paracalcin remaining in solution and served as control (i.e., 100% remaining). A second set of ampuls are stored at 40° C. and tested at 1, 2, and 3 months. A final set are stored at 30° C. and tested at 1, 2, 3, 6, 9, 12, 18, and 24 months. The results are shown in Table 2 as paracalcin remaining as a percent of control (T=0). Each time point represents 1 to 5 data points.
# [2] = Solubility of paracalcin in a cosolvent system; assay type: physicochemical; details: 25° C.
# Protocol: An adequate amount of paracalcin was weighed and added to 10 ml of cosolvent contained in a 10 ml stoppered glass test tube. Two samples were prepared for each cosolvent composition. The test tubes containing samples were shaken in a 25° C. reciprocal shaking water bath at 100 rpm. Upon complete dissolution, an aliquot was filtered through a 0.45 micron syringe filter and the filtrate diluted 1:1 with 50% methanol. The resulting diluted material was measured for the content of paracalcin.
# [3] = system: Staphylococcus aureus, Escherichia coli, Pseudomonas aeruginosa, Candida albicans, Aspergillus niger; assay: USP 23 preservative effectiveness test; assay type: cell-based; details: added to the 20% ethanol/30% PG formulation; data not shown
# Excerpt: Solutions of 20% ethanol, 30% propylene glycol, 20% ethanol/30% PG, 30ethanol/20% PG, and 40% ethanol/10% PG were passed through a 0.45 micro filter and tested by the USP 23 preservative effectiveness test as described in United States Pharmacopoeia 23-NF 18, 1995 Ed., Chapter 51, page 1681, which is incorporated herein by reference. Briefly, this involves inoculating the test solution with 10^5 to 10^6 test organisms per milliliter and then determining the number of surviving organisms after 7, 14, 21, and 28 days incubation at 20-25° C. using standard microbiological methods. Day 0 data is not required by USP 23 but was included in this study. A filtration and wash method was used to remove the inactivating agents for purposes of recovering the microorganisms, but other equivalent agents can also be validated for use. The USP test organisms include the bacteria Staphylococcus aureus, Escherichia coli, and Pseudomonas aeruginosa, a yeast (Candida albicans), and a mold (Aspergillus niger). […] The yeast and mold must not increase from the initial inoculum level. The initial inoculum level can either be calculated by knowing the stock culture concentration or by using a buffer control instead of the test solution.
structure (smiles),measurement,setting,value
"C[C@H](/C=C/[C@H](C)C(C)(C)O)[C@H]1CC[C@H]2/C(=C/C=C3C[C@@H](O)C[C@H](O)C3)CCC[C@]12C [paracalcin, 19-nor-1α,3β,25-trihydroxy-9,10-secoergosta-5,7(E),22(E)-triene]",paracalcin remaining as a percent of control (T=0),"[1]; 30° C., 0 months (Initial), autoclaved ampuls",100% of control
same,paracalcin remaining as a percent of control (T=0),"[1]; 30° C., 1 month",96% of control
same,paracalcin remaining as a percent of control (T=0),"[1]; 30° C., 2 months",96% of control
same,paracalcin remaining as a percent of control (T=0),"[1]; 30° C., 3 months",97% of control
same,paracalcin remaining as a percent of control (T=0),"[1]; 30° C., 6 months",96% of control
same,paracalcin remaining as a percent of control (T=0),"[1]; 30° C., 9 months",97% of control
same,paracalcin remaining as a percent of control (T=0),"[1]; 30° C., 12 months",100% of control
same,paracalcin remaining as a percent of control (T=0),"[1]; 30° C., 18 months",97% of control
same,paracalcin remaining as a percent of control (T=0),"[1]; 30° C., 24 months",96% of control
same,paracalcin remaining as a percent of control (T=0),"[1]; 40° C., 0 months (Initial), autoclaved ampuls",100% of control
same,paracalcin remaining as a percent of control (T=0),"[1]; 40° C., 1 month",96% of control
same,paracalcin remaining as a percent of control (T=0),"[1]; 40° C., 2 months",96% of control
same,paracalcin remaining as a percent of control (T=0),"[1]; 40° C., 3 months",98% of control
same,Paracalcin concentration in cosolvent (solubility),"[2]; Ethanol 0.00, Propylene glycol 0.302, Water 0.698",0.58 µg/mL
same,Paracalcin concentration in cosolvent (solubility),"[2]; Ethanol 0.00, Propylene glycol 0.506, Water 0.494",14.21 µg/mL
same,Paracalcin concentration in cosolvent (solubility),"[2]; Ethanol 0.100, Propylene glycol 0.257, Water 0.643",2.88 µg/mL
same,Paracalcin concentration in cosolvent (solubility),"[2]; Ethanol 0.199, Propylene glycol 0.207, Water 0.594",15.94 µg/mL
same,Paracalcin concentration in cosolvent (solubility),"[2]; Ethanol 0.201, Propylene glycol 0.308, Water 0.491",72.90 µg/mL
same,Paracalcin concentration in cosolvent (solubility),"[2]; Ethanol 0.299, Propylene glycol 0.00, Water 0.701",6.82 µg/mL
same,Paracalcin concentration in cosolvent (solubility),"[2]; Ethanol 0.347, Propylene glycol 0.102, Water 0.551",119.37 µg/mL
same,Paracalcin concentration in cosolvent (solubility),"[2]; Ethanol 0.498, Propylene glycol 0.00, Water 0.502",601.63 µg/mL
same,effect of addition of paracalcin on the preservative effect of the formulation,[3],no effect
